Experimental data from PubChem BioAssay AID2060490 (Molecular Pharmacology Branch, DTP, NCI, 2025).

System: 885512-296-R-J2-PDC complex spheroid viability
Experiment: Anticancer human tumor 885512-296-R-J2-PDC patient-derived breast carcinoma cell line growth inhibition [GQUAD]
Details: for IC50: curve of first compound; for viability, T/C: stronger effect = lower value
Description: DNA G-quadruplex Stabilizer Agents in Combinations in Complex Spheroids
A high-throughput screen of multi-cell type tumor spheroids was designed to identify active combinations of DNA G-quadruplex stabilizer agents and targeted small molecules. Complex spheroids include a stromal component modeled by human endothelial cells (HUVEC) and fibroblasts modeled by human mesenchymal stem cells (MSCs). The concentration ranges selected for each drug and investigational agent were based upon clinically achievable concentrations if the clinical Cmax of the agent was known.
Compounds. The drugs and investigational agents: pidnarulex (CX-5461; NSC782164), APTO-253 (NSC789042), BRACO-19 (NSC847499), peposertib (NSC802822), ceralasertib (NSC780249), elimusertib (NSC800525), camonsertib (NSC841442), AZD-1390 (NSC803789), olaparib (NSC753686), talazoparib (NSC767125), ART-558 (NSC835418), sotorasib (NSC818433), MRTX-1133 (NSC836407), SN-38 (NSC673596), topotecan (NSC609699), etoposide (NSC141540), doxorubicin (NSC123127), gemcitabine (NSC613327), 5-fluorouracil (NSC19893), paclitaxel (NSC125973), vemurafenib (NSC761431), panobinostat (NSC761190), R-306465 (JNJ-16241199; NSC773264), adavosertib (NSC754352), TP-3654 (NSC805149), carboplatin (NSC241240), KSQ-4279 (NSC840948), and staurosporine (NSC755774) were obtained from the National Cancer Institute (NCI) Developmental Therapeutics Program Chemical Repository (34). The FDA-approved anticancer drug set is available from the NCI Developmental Therapeutics Program. […] The stock solutions were prepared in dimethyl sulfoxide (DMSO, Sigma-Aldrich, St. Louis, MO, cat. D2650) at 800-fold the tested concentration and stored at -70 degrees C prior to their use. All drugs and investigational agents were tested over a range starting from a high concentration at or near the clinical Cmax and decreasing in half-log increments. If the clinical Cmax for an agent had not been determined, the highest concentration tested was 10 microM.
2.3 Cell Culture. All cells were maintained in an incubator at 37 degrees C and 5% CO2 with 95% humidity. The PDC lines were cultured according to standard operating procedures established by the NCI PDMR. All PDCs were thawed and cultured in Matrigel-coated flasks prepared with a working solution of 1X Ham's F-12 nutrient mix, without supplementation (Invitrogen, cat. 11765054), 100 U/mL penicillin-streptomycin (Invitrogen, cat. 15140122), and 2.5% Matrigel (Corning Inc., cat. 354248) for the first three passages. The 857933-349-R-J2-PDC line was cultured in 6C/Colon 1B media, which includes advanced DMEM/F-12 (Thermo Fisher Scientific, cat. 12634028), 10 mM HEPES (Thermo Fisher Scientific, cat. 15630080), 1X GlutaMAX supplement (Thermo Fisher Scientific, cat. 35050061), 0.1 mg/mL primocin (InvivoGen, cat. ant-pm-2), 10% defined fetal bovine serum, heat inactivated (HyClone Laboratories Inc., cat. SH30070.03HI), 50% L-WRN conditioned media (ATCC, cat. CRL-3276), 1.25 mM N-Acetyl-L-cysteine (Sigma-Aldrich, cat. A9165), 10 mM nicotinamide (Sigma-Aldrich, cat. N0636), 1X B-27 supplement (Thermo Fisher Scientific, cat. 17504044), 1X N-2 supplement (Thermo Fisher Scientific, cat. 17502048), 10 microM Y-27632 dihydrochloride (Tocris Bioscience, cat. 1254), and 50 ng/mL human EGF recombinant protein (Thermo Fisher Scientific, cat. PHG0311). The 485176-168-R4-J1-PDC line was cultured in Panc media, which includes all 6C/Colon 1B media components plus 100 ng/mL human FGF-10 (Thermo Fisher Scientific, cat. 100-26), 500 nM SB-431542 (Selleckchem, cat. S1067), and gastrin (Tocris, cat. 3006).
[…]

[1] = second compound 0.0316 µM, first compound 0.0316 µM
[2] = second compound 0.0316 µM, first compound 0.316 µM
[3] = second compound 0.1 µM, first compound 0.0316 µM
[4] = second compound 0.1 µM, first compound 0.316 µM
[5] = second compound 0.316 µM, first compound 0.0316 µM
[6] = second compound 0.316 µM, first compound 0.316 µM
[7] = second compound 1 µM, first compound 0.0316 µM
[8] = second compound 1 µM, first compound 0.316 µM
[9] = second compound 3.16 µM, first compound 0.0316 µM
[10] = second compound 3.16 µM, first compound 0.316 µM
[11] = second compound 10 µM, first compound 0.0316 µM
[12] = second compound 10 µM, first compound 0.316 µM
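Note: spheroids exposed to the compounds for one week.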
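Throughout, for viability, T/C: percent of tumor spheroid viability relative to DMSO vehicle control wells.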

Cc1[nH]c2ccccc2c1CCNCc1ccc(/C=C/C(=O)NO)cc1 + CN(C)c1ccc(Nc2c3ccc(NC(=O)CCN4CCCC4)cc3nc3cc(NC(=O)CCN4CCCC4)ccc23)cc1
IC50 (second compound 0.0316 µM): 0.0263 µM
IC50 (second compound 0.1 µM): 0.0248 µM
IC50 (second compound 0.316 µM): 0.0203 µM
IC50 (second compound 1 µM): 0.0308 µM
IC50 (second compound 3.16 µM): 0.00845 µM
IC50 (second compound 10 µM): < 0.000999 µM
viability, T/C (second compound 0.0316 µM, first compound 0.000999 µM): 96.5%
viability, T/C (second compound 0.0316 µM, first compound 0.00316 µM): 84.1%
viability, T/C (second compound 0.0316 µM, first compound 0.00999 µM): 70.8%
viability, T/C [1]: 40.1%
viability, T/C (second compound 0.0316 µM, first compound 0.0999 µM): 30.1%
viability, T/C [2]: 3.59%
viability, T/C (second compound 0.1 µM, first compound 0.000999 µM): 95.6%
viability, T/C (second compound 0.1 µM, first compound 0.00316 µM): 91.7%
viability, T/C (second compound 0.1 µM, first compound 0.00999 µM): 64.8%
viability, T/C [3]: 44.1%
viability, T/C (second compound 0.1 µM, first compound 0.0999 µM): 25.3%
viability, T/C [4]: 4.19%
viability, T/C (second compound 0.316 µM, first compound 0.000999 µM): 103%
viability, T/C (second compound 0.316 µM, first compound 0.00316 µM): 93.2%
viability, T/C (second compound 0.316 µM, first compound 0.00999 µM): 63%
viability, T/C [5]: 35.9%
viability, T/C (second compound 0.316 µM, first compound 0.0999 µM): 28.6%
viability, T/C [6]: 4.61%
viability, T/C (second compound 1 µM, first compound 0.000999 µM): 85.7%
viability, T/C (second compound 1 µM, first compound 0.00316 µM): 94.4%
viability, T/C (second compound 1 µM, first compound 0.00999 µM): 63.7%
viability, T/C [7]: 48%
viability, T/C (second compound 1 µM, first compound 0.0999 µM): 29.5%
viability, T/C [8]: 4.03%
viability, T/C (second compound 3.16 µM, first compound 0.000999 µM): 80%
viability, T/C (second compound 3.16 µM, first compound 0.00316 µM): 64.7%
viability, T/C (second compound 3.16 µM, first compound 0.00999 µM): 46.5%
viability, T/C [9]: 30.1%
viability, T/C (second compound 3.16 µM, first compound 0.0999 µM): 24.6%
viability, T/C [10]: 5.49%
viability, T/C (second compound 10 µM, first compound 0.000999 µM): 18.2%
viability, T/C (second compound 10 µM, first compound 0.00316 µM): 17.7%
viability, T/C (second compound 10 µM, first compound 0.00999 µM): 11.3%
viability, T/C [11]: 10.3%
viability, T/C (second compound 10 µM, first compound 0.0999 µM): 13%
viability, T/C [12]: 2.87%

COc1ccc([C@@H](O)c2cc(-c3ncnc4cc(N5CCOCC5)ccc34)c(F)cc2Cl)nn1 + Cc1[nH]c2ccc(F)cc2c1-c1nc2c3cccnc3c3ncccc3c2[nH]1
IC50 (second compound 0.0316 µM): > 10 µM
IC50 (second compound 0.1 µM): > 10 µM
IC50 (second compound 0.316 µM): > 10 µM
IC50 (second compound 1 µM): 4.34 µM
IC50 (second compound 3.16 µM): < 0.0316 µM
IC50 (second compound 10 µM): < 0.0316 µM
viability, T/C [1]: 114%
viability, T/C (second compound 0.0316 µM, first compound 0.1 µM): 92.6%
viability, T/C [2]: 95.5%
viability, T/C (second compound 0.0316 µM, first compound 1 µM): 100%
viability, T/C (second compound 0.0316 µM, first compound 3.16 µM): 94.2%
viability, T/C (second compound 0.0316 µM, first compound 10 µM): 58.7%
viability, T/C [3]: 121%
viability, T/C (second compound 0.1 µM, first compound 0.1 µM): 98%
viability, T/C [4]: 104%
viability, T/C (second compound 0.1 µM, first compound 1 µM): 94%
viability, T/C (second compound 0.1 µM, first compound 3.16 µM): 83.7%
viability, T/C (second compound 0.1 µM, first compound 10 µM): 51.7%
viability, T/C [5]: 103%
viability, T/C (second compound 0.316 µM, first compound 0.1 µM): 96.7%
viability, T/C [6]: 85.9%
viability, T/C (second compound 0.316 µM, first compound 1 µM): 94.4%
viability, T/C (second compound 0.316 µM, first compound 3.16 µM): 73.6%
viability, T/C (second compound 0.316 µM, first compound 10 µM): 57.5%
viability, T/C [7]: 73.7%
viability, T/C (second compound 1 µM, first compound 0.1 µM): 85.9%
viability, T/C [8]: 67.6%
viability, T/C (second compound 1 µM, first compound 1 µM): 68.7%
viability, T/C (second compound 1 µM, first compound 3.16 µM): 59.2%
viability, T/C (second compound 1 µM, first compound 10 µM): 30%
viability, T/C [9]: 11.3%
viability, T/C (second compound 3.16 µM, first compound 0.1 µM): 6.47%
viability, T/C [10]: 12.8%
viability, T/C (second compound 3.16 µM, first compound 1 µM): 5.75%
viability, T/C (second compound 3.16 µM, first compound 3.16 µM): 10.1%
viability, T/C (second compound 3.16 µM, first compound 10 µM): 3.06%
viability, T/C [11]: 1.38%
viability, T/C (second compound 10 µM, first compound 0.1 µM): 2.32%
viability, T/C [12]: 1.63%
viability, T/C (second compound 10 µM, first compound 1 µM): 1.42%
viability, T/C (second compound 10 µM, first compound 3.16 µM): 1.48%
viability, T/C (second compound 10 µM, first compound 10 µM): 1.5%
